From patent publication US20050050594A1, “Tryptophan synthase as a site of herbicide action” (priority 1999, published 2005)

Columns and labels:
[1] = tested on: mustard, hemp sesbania, soybean, lambsquarters, pigweed, bindweed, morningglory, corn, green foxtail, velvetleaf; assay: Early injury symptoms and species effects on postemergence treated plants; format: in vivo; settings: post emergence, 4 or 8 kg/ha; for Symptoms 6 DAT: 6 days after application
Excerpt: Herbicidal compounds of the invention were examined for their herbicidal effects by observing symptoms on postemergence treated plants.
Early injury symptoms caused by the TS-inhibiting herbicides of the invention are represented in Table 13. Symptoms and species effects are represented through the herbicidal activity {4-[(o-hydroxyphenyl)thio]butyl}-phosphonic acid, applied at 4 or 8 kg/ha.

[2] = tested on: a variety of dicotyledonous and monocotyledonous plants; assay: Postemergence greenhouse herbicidal test; format: in vivo; settings: Postemergence application
Experimental: The herbicidal activity of the compounds was tested as described in the U.S. Pat. No. 5,635,449. […] In the tests, seedling plants are grown in jiffy flats for about two weeks. The test compounds are dispersed in 50/50 acetone/water mixtures containing 0.5% TWEEN®20, a polyoxyethylene sorbitan monolaurate surfactant of Atlas Chemical Industries, in sufficient quantities to provide the equivalent of about 1.0 kg to 8.0 kg per hectare of test compound when applied to the plants through a spray nozzle operating at 40 psi for a predetermined time. After spraying, the plants are placed on greenhouse benches and are cared for in the usual manner, commensurate with conventional greenhouse practices. From four to five weeks after treatment, the seedling plants are examined and rate according to the rating system set forth below.

TSβ (Spinacea enzyme) = assay: TSβ assay with partially purified spinach enzyme; format: biochemical, Spinacea oleracea; parameters: key: the increase in the number of “+” corresponds to the increase of inhibition; +++++: the increase in the number of “+” corresponds to the increase of inhibition; +++++++: the increase in the number of “+” corresponds to the increase of inhibition; settings: determined qualitatively
Experimental: The assay was conducted in microfuge tubes by the TSβ reaction (indole+L-serine→L-tryptophan+H2O). 100 μL of extract was mixed with 150 μL of 0.4 mM indole, 80 mM serine, 0.03 mM PLP, 0.1 M Tris-Cl buffer pH 7.8, containing 7.5 μL of saturated NaCl. The mixture was incubated at 21° C. for increasing time intervals, from 10 min to several hours. The reaction was terminated by adding 25 μL 1 N NaOH, then 1 mL toluene with mixing, and then centifuging in a microfuge 2 min at 10,000×G to partition remaining indole into the toluene phase and away from the enzyme. Remaining indole was subsequently partitioned into the indole reagent phase and reacted with dimethylaminobenzaldehyde: 500 μL of the toluene layer from the microfuge tubes was mixed with 1 ml of the indole reagent in another tube and allowed to separate for 20 min, then the lower layer was carefully pipetted into a cuvette and its absorbance measured at 540 nm. This part of the assay was conducted as known in the art.
A unique microtiter plate method was also developed to streamline the partitioning steps and data collection. First, the TSβ reaction was performed as above in microfuge tubes. […] The plate was covered by a mylar sheet (to protect the plate reader and avoid evaporation) and absorbance was monitored on the plate reader at 535 nm. […]
TS was partially purified from spinach for use in the TSβ assay. The greatest degree of purification was achieved by homogenizing the tissue, preparing the 30-50% ammonium sulfate fraction and freezing it, thawing it, and applying the dissolved precipitate to an FPLC column (Waters SW300, Waters Corporation, Franklin, Mass.) to separate the TS activity (measured as TSβ) from the bulk of the protein. […] Because of the low yield of the assay of partially purified plant TS, endogenous enzyme was measured in crude extracts or in enzyme preparations involving one or two purification steps. […]

`O=P(O)(O)CCCCSc1ccccc1O` [Compound 22, {4-[(o-hydroxyphenyl)thio]butyl}-phosphonic acid] was tested, and the “Symptoms 6 DAT” value ([1]; height reduction) was “height reduction: lambs quarter,”, the “Symptoms 6 DAT” value ([1]; increased branching) was “increased branching: soybean” and the “Symptoms 6 DAT” value ([1]; leaf mottling) was “leaf mottling: mustard, soybean,”. The “Symptoms 6 DAT” value ([1]; leaf yellowing) was “leaf yellowing: mustard, hemp”, the “Symptoms 6 DAT” value ([1]; shoot tip yellowing) was “shoot tip yellowing: hemp sesbania” and the “Symptoms 6 DAT” value ([1]; tip necrosis) was “tip necrosis: hemp sesbania”. The “Species effects, 13 DAT: bindweed” value ([1]; 13 days after application) was “bindweed: mottling, some necrosis,”, the “Species effects, 13 DAT: corn” value ([1]; 13 days after application) was “corn: unaffected” and the “Species effects, 13 DAT: green foxtail” value ([1]; 13 days after application) was “green foxtail: stunted, yellowing, red”. For the same compound, the “Species effects, 13 DAT: hemp sesbania” value ([1]; 13 days after application) was “hemp sesbania: no growth between 6”, the “Species effects, 13 DAT: lambsquarters height reduction” value ([1]; 13 days after application) was “lambsquarters: 40% height reduction,” and the “Species effects, 13 DAT: pigweed height reduction” value ([1]; 13 days after application) was “pigweed: 25% height reduction”. The “Species effects, 13 DAT: soybean” value ([1]; 13 days after application) was “soybean: shoot nearly dead except”, the “Species effects, 13 DAT: velvetleaf height reduction” value ([1]; 13 days after application) was “velvetleaf: 50% height reduction” and the “Herbicidal Activity” value [2] was “+++ (+++ = 80-100% injury to two species)”. The “TSβ (Spinacea enzyme), relative activity” value (TSβ (Spinacea enzyme)) was “+”.
